Laboratory results: PubChem BioAssay AID2060615 (Molecular Pharmacology Branch, DTP, NCI, 2025)
Several values for one entry are separate records, joined by “and”; a condition that tells them apart may be missing. Equal values may be shown once.

Tested on: 496974-208-R-J2-PDC complex spheroids, growth % test/control
Assay: Anticancer human tumor 496974-208-R-J2-PDC patient-derived pancreatic carcinoma cell line growth inhibition [CLK]
Conditions: for viability, T/C: stronger effect = lower value; for IC50: curve of compound
Description: A high-throughput screen of multi-cell type tumor spheroids was designed to identify active combinations of […] and targeted small molecules. Complex spheroids include a stromal component modeled by human endothelial cells (HUVEC) and fibroblasts modeled by human mesenchymal stem cells (MSCs). The concentration ranges selected for each drug and investigational agent were based upon clinically achievable concentrations if the clinical Cmax of the agent was known.
Compounds. The drugs and investigational agents: cirtuvivint (SM08502; NSC835563), CC-671 (NSC850746), vemurafenib (NSC761431), tapotoclax (NSC804041), sotorasib (NSC818433), adagrasib (NSC831453), MRTX-1133 (NSC836407), BAY2416964 (NSC825713), copanlisib (NSC816437), inavolisib (NSC800729), abemaciclib (NSC768073), osimertinib (NSC779217), entinostat (NSC756642), eltanexor (KPT-8602, NSC794443), venetoclax (NSC766270), ceralasertib (NSC777638), bortezomib (NSC756655), olaparib (NSC753686), talazoparib (NSC767125), alisertib (NSC759677), peposertib (NSC802822), gemcitabine (NSC613327), 5-fluorouracil (NSC19893), SN-38 (NSC673596), oxaliplatin (NSC266046), paclitaxel (NSC125973), and doxorubicin (NSC123127), were obtained from the National Cancer Institute (NCI) Developmental Therapeutics Program Chemical Repository. The FDA-approved anticancer drug set is available from the Developmental Therapeutics Program at https://dtp.cancer.gov/organization/dscb/obtaining/available plates.htm. […] The stock solutions were prepared in dimethyl sulfoxide (DMSO, Sigma-Aldrich, St. Louis, MO, cat. D2650), except for the platinum complexes which were prepared in saline (Quality Biological, Gaithersburg, MD, cat. 114-055-101), at 800-fold the tested concentration and stored at -70 degrees C prior to their use. All drugs and investigational agents were tested over a range starting from a high concentration at or near the clinical Cmax and decreasing in half-log increments. If the clinical Cmax for an agent had not been determined, the highest concentration tested was 10 microM.
Cell Culture. All cells were maintained in an incubator at 37 degrees C and 5% CO2 with 95% humidity. The PDC lines were cultured according to standard operating procedures established by the NCI PDMR. Briefly, all PDCs were thawed and cultured in Matrigel-coated flasks prepared with a working solution of 1X Ham's F-12 nutrient mix, without supplementation (Invitrogen, Waltham, MA, cat. 11765054), 100 U/mL penicillin-streptomycin (Invitrogen, cat. 15140122), and 2.5% Matrigel (Corning Inc., Corning, NY, cat. 354248) for the first three passages. The 947758-054-R-J2-PDC line was cultured in 6B/Colon 1A media, which includes advanced DMEM/F-12 (Thermo Fisher Scientific, cat. 12634028), 10 mM HEPES (Thermo Fisher Scientific, cat. 15630080), 1X GlutaMAX supplement (Thermo Fisher Scientific, cat. 35050061), 0.1 mg/mL primocin (InvivoGen, cat. ant-pm-2), 10% defined fetal bovine serum, heat inactivated (HyClone Laboratories Inc., cat. SH30070.03HI), 1.25 mM N-Acetyl-L-cysteine (Sigma-Aldrich, cat. A9165), 10 mM nicotinamide (Sigma-Aldrich, cat. N0636), 1X B-27 supplement (Thermo Fisher Scientific, cat. 17504044), 1X N-2 supplement (Thermo Fisher Scientific, cat. 17502048), and 10 microM Y-27632 dihydrochloride (Tocris Bioscience, cat. 1254). The 876862-298-R-J1-PDC was cultured in 6E media, which includes all 6B/Colon 1A media components plus 50% L-WRN conditioned media (ATCC, cat. CRL-3276), 50 ng/mL recombinant human EGF recombinant protein (hEGF; Thermo Fisher Scientific, cat. PHG0311), 10 ng/mL recombinant human fibroblast growth factor 10 (hGFG-10; PeproTech, cat. 100-26), 1 ng/mL recombinant human fibroblast growth factor 2 (hFGF-2; PeproTech, cat. 100-18B), and 1 µM prostaglandin E2 (PGE2; Tocris, cat. 2296). The 227483-062-R1-J1-PDC line was cultured in Panc media, containing all 6E components except hFGF-2, with the addition of 500 nM SB-431542 (Selleckchem, cat. S1067) and 10 nM gastrin (Tocris, cat. 3006). […]
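Note: spheroids exposed to the drugs for 7 days before readout.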
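Throughout, for viability, T/C: 100% = DMSO vehicle control wells.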

IC50	Structure (SMILES)	viability, T/C (compound 0.0316 µM)	viability, T/C (compound 0.1 µM)	viability, T/C (compound 0.316 µM)	viability, T/C (compound 1 µM)	viability, T/C (compound 3.16 µM)	viability, T/C (compound 10 µM)
< 31.6 nM	CC(=O)O[C@H]1C(=O)[C@@]2(C)[C@H]([C@H](OC(=O)c3ccccc3)[C@]3(O)C[C@H](OC(=O)[C@H](O)[C@@H](NC(=O)c4ccccc4)c4ccccc4)C(C)=C1C3(C)C)[C@]1(OC(C)=O)CO[C@@H]1C[C@@H]2O	34.8%	28.4%	30.7%	27.8%	38.6%	29.1%
4920 nM and 7030 nM	COc1ccc([C@@H](O)c2cc(-c3ncnc4cc(N5CCOCC5)ccc34)c(F)cc2Cl)nn1	104%	91.3% and 92.1%	87% and 103%	77.4% and 80.6%	64.5% and 71.6%	31.2% and 40.8%
121 nM and 177 nM	COc1cccc2c1C(=O)c1c(O)c3c(c(O)c1C2=O)CC(O)(C(=O)CO)CC3OC1CC(N)C(O)C(C)O1 (stereo unspecified)	73.2% and 85.7%	53.8% and 61.2%	26% and 39.9%	2.82% and 3.77%	0.71% and 0.67%	1.39% and 0.57%
